Reference: patent US20240255509A1, “COMPOSITIONS AND METHODS RELATED TO K180 DIMETHYLATED H1.0 PROTEIN” (Aelan Cell Technologies, Inc., priority 2016, published 2024)

Experiments:
Format in all cases: cell-based, human
H1.0K180me2 [1] = test: Western blot for H1.0K180me2 in SR hADSCs after bleomycin or temozolomide; details: SR hADSCs treated for 2 hours, 50 μg/ml
Source text: Material for western blot analysis (cultured cells or tissue) was lysed in ice-cold RIPA lysis buffer (Thermo Scientific 89900) and sonicated using a Covaris S2 sonicator (10% duty cycle, Intensity 5, Bursts per minute 100, 120 seconds). Total protein concentration in each sample was quantified using Quick Start Bradford 1× Dye Reagent (BioRad, 5000205) following manufacturer's protocol. Samples were then mixed with NUPAGE LDS sample loading buffer (ThermoFisher, NP0007) and NUPAGE sample reducing buffer (ThermoFisher, NP0004), and heat denatured at 70° C. for 10 minutes. Proteins were separated on 4-12% precast polyacrylamide gels (ThermoFisher, NP0321) by electrophoresis and transferred to 0.45 μm nitrocellulose membrane. The membrane was blocked with 5% non-fat milk in PBS-T for 30 minutes at RT then immunoblotted with the above primary antibodies at 4° C. overnight. Proteins were detected with HRP secondary antibodies listed above for 1 hour at RT followed by ECL Western Blotting Substrate (ThermoFisher, 32106) using manufacturer's instructions. All washes between steps were with PBS-T. Membranes were imaged with Omega LUM-C imaging system (Gel Company). […]
SR hADSCs were treated for 2 hours with bleomycin or temozolomide, a compound that triggers base excision repair pathways. Cells were then lysed and analyzed be western blot for H1.0K180me2, γH2A.X and β-Actin.

histone H1.0 mRNA = test: RT-PCR analysis of histone H1.0 mRNA expression in hADSCs after bleomycin
Method: (§1) For replicative senescence, hADSCs were grown in culture until reaching replicative exhaustion (PD 41-46). For acute DNA damage conditions, SR hADSCs (PD 4-10) were treated with 50 μg/ml bleomycin sulfate (Cayman Chemical, 13877) in growth media for 2 hours. For genotoxic stress-induced senescence, SR hADSCs (PD 4-10) were treated with 50 μg/ml bleomycin sulfate (Cayman Chemical, 13877) in growth media for 2 hours then washed with PBS and given fresh growth media without bleomycin. Cells were then grown for 3 days before collection.
RT-PCR analysis of histone H1.0 mRNA expression was performed on total RNA derived from self-replicating hADSCs, hADSCs treated with bleomycin for 2 hours (acute DNA damage) and hADSCs treated with bleomycin and allowed to senesce for 3 days (genotoxic stress-induced senescence). H1.0 mRNA expression increases over 2-fold upon acute DNA damage, and remains elevated (1.5-fold over SR) upon genotoxic stress induced senescence.

H1.0K180me2 [2] = test: H1.0K180me2 on chromatin (western blot) and localization in hADSCs after bleomycin
Method: as §1
Material for western blot analysis (cultured cells or tissue) was lysed in ice-cold RIPA lysis buffer (Thermo Scientific 89900) and sonicated using a Covaris S2 sonicator (10% duty cycle, Intensity 5, Bursts per minute 100, 120 seconds). Total protein concentration in each sample was quantified using Quick Start Bradford 1× Dye Reagent (BioRad, 5000205) following manufacturer's protocol. Samples were then mixed with NUPAGE LDS sample loading buffer (ThermoFisher, NP0007) and NUPAGE sample reducing buffer (ThermoFisher, NP0004), and heat denatured at 70° C. for 10 minutes. […] Proteins were detected with HRP secondary antibodies listed above for 1 hour at RT followed by ECL Western Blotting Substrate (ThermoFisher, 32106) using manufacturer's instructions. […]

Chromatin bound H1.0 = test: LC-MS/MS of soluble and chromatin bound fractions of hADSCs after bleomycin
Method: as §1
SR hADSCs, hADSCs treated with bleomycin for 2 hours (acute DNA damage) and hADSCs treated with bleomycin and allowed to senesce for 3 days (genotoxic stress induced senescence) were lysed and fractionated into soluble and chromatin bound fractions. These fractions were then subjected to LC-MS/MS analysis. Peptide expression levels were taken as the total area under the LC-MS/MS relative intensity curve, and individual peptides were unambiguously assigned to proteins using Pinpoint software, version 1.4 (Thermo Scientific). The areas of all peptides assigned to an individual protein were summed to yield protein expression levels, which were normalized against the total protein library size for each sample. For each cellular fraction, H1.0 peptide abundance is represented as a percentage of total H1.0 peptides observed in each condition. […]

secreted H1.0K180me2 = test: Slot blot of conditioned medium of hADSCs after bleomycin (secretion)
Method: 0.5 μl of serum sample or known amounts of synthesized peptide were diluted in 200 μl TBS. Samples were then heat denatured at 70° C. for 10 minutes before being transferred to nitrocellulose membrane using a vacuum manifold slot blot apparatus (BioRad, 1706542). The membrane was blocked with 5% non-fat milk in PBS-T for 30 minutes at RT then immunoblotted with the above primary antibodies at 4° C. overnight. Proteins were detected with HRP secondary antibodies listed above for 1 hour at RT followed by ECL Western Blotting Substrate (ThermoFisher, 32106) using manufacturer's instructions. All washes between steps were with PBS-T. Membranes were imaged with Omega LUM-C imaging system (Gel Company). Slot blot bands for each sample were then quantified using ImageJ.
This signifies secretion out of the cells. An increase in DNA fragmentation factor (DFFB/DFF40/CAD) secretion upon GSI-SEN was seen, in a similar manner to H1.0K180me2 starting 48 hours after treatment (FIG. 7B).
SR hADSCs, hADSCs treated with bleomycin for 2 hours (acute DNA damage) and hADSCs treated with bleomycin and allowed to senesce for 3 days (genotoxic stress induced senescence) were lysed and fractionated into soluble and chromatin bound fractions. These fractions were then subjected to LC-MS/MS analysis. Peptide expression levels were taken as the total area under the LC-MS/MS relative intensity curve, and individual peptides were unambiguously assigned to proteins using Pinpoint software, version 1.4 (Thermo Scientific). The areas of all peptides assigned to an individual protein were summed to yield protein expression levels, which were normalized against the total protein library size for each sample. For each cellular fraction, H1.0 peptide abundance is represented as a percentage of total H1.0 peptides observed in each condition. Normalized absolute values of H1.0 peptide levels in each fraction were also shown. […] Culture media from SR hADSCs treated with bleomycin was collected for slot blot analysis with α-H1.0 and α-H1.0K180me2 antibodies to assess secretion of H1.0 to the extracellular matrix (ECM). The experiment was carried out according to methods described in Example 1.

[3] = acute DNA damage: bleomycin for 2 hours
[4] = genotoxic stress induced senescence: bleomycin, then 3 days

bleomycin sulfate
induction of H1.0K180me2 methylation (H1.0K180me2 [1]): capable of inducing H1.0K180me2 methylation | H1.0 mRNA expression increase over SR (histone H1.0 mRNA; [3]): over 2 fold | H1.0 mRNA expression increase over SR (histone H1.0 mRNA; [4]): 1.5 fold | localization of H1.0K180me2 (H1.0K180me2 [2]; SR hADSCs treated with bleomycin): localized to the cytoplasm | methylation of H1.0K180 on chromatin (H1.0K180me2 [2]; bleomycin for 2 hours, chromatin bound fraction, western blot): methylation of H1.0K180 on the chromatin | Chromatin bound H1.0, % of total H1.0 peptides (Chromatin bound H1.0; [3]): ~60% | Chromatin bound H1.0, % of total H1.0 peptides (Chromatin bound H1.0; [4]): ~30% | DNA fragmentation factor (DFFB/DFF40/CAD) secretion (secreted H1.0K180me2; GSI-SEN, starting 48 hours after treatment): increase | secretion of H1.0K180me2 and DFFB upon onset of acute DNA damage (ADD) (secreted H1.0K180me2; acute DNA damage): None of the protein is secreted in measurable quantities | secreted H1.0K180me2 in cell culture media (secreted H1.0K180me2; after 24 hours of bleomycin treatment): readily detected | time of maximal H1.0K180me2 secretion into conditioned medium (secreted H1.0K180me2; time course after bleomycin): ≤ 48 h
